# Results as given in PMC9331544, “Molecular Physicochemical Properties of Selected Pesticides as Predictive Factors for Oxidative Stress and Apoptosis-Dependent Cell Death in Caco-2 and HepG2 Cells” (International Journal of Molecular Sciences, 2022).
# Where two headings read alike, the source gives them in different places.
# Legend:
# Caco-2 cells [1] = test system: Caco-2 cells
# Description: (§1) Given the role of mitochondria in both oxidative stress and cell death (apoptosis), we evaluated the mitochondrial membrane potential (MMP) using the JC-1 probe (see methods for details). This probe accumulates in the mitochondria in the form of J-aggregates when in normal mitochondrial conditions (polarized) and presents red fluorescence. By contrast, in unhealthy cells, when depolarization occurs, JC-1 enters the mitochondria in lower concentrations forming monomers inducing a fluorescence shift to green fluorescence, thus the loss of MMP is observed through flow cytometry as a reduction in red (FL2) and an increase in green (FL1) fluorescence, or as a reduction in red/green (FL2/FL1) fluorescence ratio [45, 46].
# (§2) Pesticide-induced oxidative stress and apoptosis/necrosis events were analysed by flow cytometry. For this, one colour and two-colour flow cytometry assays were performed, using a BD Accuri™ C6 cytometer (Franklin Lakes, NJ, USA) equipment for data acquisition. Each assay was performed at least in triplicate (n = 3) and 5000 gated events were collected from each sample. Data analysis was performed using BD Accuri™ C6 Software, version 1.0.264.21 supplied by Becton Dickinson (Franklin Lakes, NJ, USA).
# (§3) Caco-2 and HepG2 cells (handled as described in Section 3.2.1) were seeded in 12-well microplates (at 5 × 10^4 cells/mL density; 750 µL/well), and allowed to adhere and stabilize for 48 h in the incubator. […] Negative control cells (non-exposed cells) were included in each assay. After a 24 h incubation with test solutions, cells were washed with phosphate buffer saline (PBS) solution and then detached from the microplates (as in Section 3.2.1) and placed in centrifuge tubes and centrifuged (5 min, 3000 rpm, bench micro-centrifuge). After eliminating the supernatant, cells were washed in PBS solution through another centrifuge cycle. Then cells were divided before being incubated with the specific markers to assess oxidative stress markers and cell apoptosis/necrosis.
# (§4) Mitochondrial membrane potential was analysed using JC-1 probe following the procedures as described by the manufacturer. Caco-2 and HepG2 cells suspended in PBS were centrifuged (5 min, 3000 rpm, bench micro-centrifuge), the supernatant was removed and 200 μL of JC-1 solution (2 μM; diluted in FBS-free culture media) was added to each sample. The samples were incubated for 20 min at 37 °C (in a CO2 incubator) and then analysed by flow cytometry. Negative control, non-exposed, and positive control cells exposed to the protonophore FCCP (5 μM; carbonyl cyanide p-trifluoromethoxyphenylhydrazone) were performed in each set of experiments.
# HepG2 cells [2] = conditions: for HepG2 FL2/FL1 ratio: mean ± SD
# Description: as §1, §2, §3, §4
# HepG2 cells [3] = conditions: occupational concentrations; ref [29]; cited from earlier work
# Caco-2 cells [4] = assay: Alamar Blue cell viability/cytotoxicity assay; format: cell-based, human; conditions: mean ± SD (n = 4), read-out: IC50 of pesticide-induced cytotoxicity
# Method: (§5) In this study, to assess the cytotoxic activity of GLY, IMD, and IMZ, human epithelial colorectal adenocarcinoma (Caco-2), cell lines service (CLS), (Eppelheim, Germany) and human hepatocellular carcinoma (HepG2) (ATCC, Rockville, Maryland, USA) cells were used. Cells were cultured in complete culture media (Dulbecco’s Modified Eagle Media (DMEM), supplemented with 1 mM L-glutamine, 10% (v/v) foetal bovine serum (FBS), and antibiotics (penicillin at 100 U/mL, and streptomycin at 100 μg/mL)) and maintained at 5% CO2/95% air; 37 °C, controlled humidity, in an incubator. Cells were grown in T25 culture flasks to near confluence. Then, these adherent cells were treated with trypsin (trypsin-EDTA), for detachment and subculture, which was stopped using complete culture medium (1:1, trypsin:culture media) as soon as cells were detached (about 6 and 8 minutes of trypsin treatment for HepG2 and Caco-2 cells, respectively). Detached cells were gently re-suspended with a Pasteur pipette and then a sample was counted using an automated cell counter (TC10™, BIORAD, Portugal). A suspension of cells in fresh culture media, at 5 × 10^4 cells/mL was prepared to seed into 96-well microplates (100 µL/well). After seeding, cells were placed in the incubator for 48 h (to adhere and stabilize) before being used, for other details see [66, 67].
# (§6) Cell viability was assessed using the Alamar Blue® (AB) assay, after exposure to the pesticides. In summary, cells seeded into 96-well microplates were subjected to various concentrations of the pesticides (GLY: 0–1 mM; IMD: 0–1 mM; IMZ: 0–0.3 mM). To prepare the test solutions, the appropriate volume of the pesticide stock solution was diluted in FBS-free culture media just before its application to the cells. Stock solution of GLY was prepared in water (at 40 mM), and stock solutions of IMD and IMZ were prepared in DMSO (at 20 mM). After 24 h or 48 h of exposure, the test solutions were removed and the Alamar Blue solution (100 µL/well; 10% (v/v) in FBS-free medium) was immediately added to the cells, followed by a further 5 h incubation. The absorbance was then read at 570 and 620 nm using a microplate reader (Multiskan EX; MTX Lab Systems, Inc., Bradenton, FL, USA) and the percentage of the AB reduction was calculated according to the manufacturer’s instructions, as described before. Cell viability, at each condition, was calculated and expressed as percentage of control cells (non-exposed cells).
# (§7) The concentrations needed to reduce cell viability by 50% (IC50) were calculated from three independent experiments (each one performed in quadruplicates), as described.
# [5] = Alamar Blue cell viability/cytotoxicity assay; format: cell-based, human; conditions: human
# Method: as §5, §6, §7
# HepG2 cells [6] = assay: Alamar Blue cell viability/cytotoxicity assay; format: cell-based, human; conditions: mean ± SD (n = 4), read-out: IC50 of pesticide-induced cytotoxicity
# Method: as §5, §6, §7
# Caco-2 cells [7] = assay: Intracellular ROS content, DCFDA, flow cytometry; format: cell-based, human; conditions: for change in ROS content vs control (in words): Caco-2, 24 h, tested concentrations
# Method: (§8) To assess pesticides-induced oxidative stress, the intracellular content in reactive oxygen species (ROS), content in glutathione (GSH), and lipid peroxidation was quantified by flow cytometry, following the methods described by Domínguez-Perles, et al. and Queiroz, et al.. Briefly, to assess ROS content, cells re-suspended in PBS (from Section 3.3.1) were centrifuged (5 min, 3000 rpm, bench micro-centrifuge) and, after eliminating the supernatant, 200 μL of 10 µM DCFDA solution (prepared in FBS-free DMEM) was added to each sample. After a 45 min incubation at 37 °C (in the dark, in an incubator), cells were centrifuged to remove excess of probe and re-suspended in PBS. Finally, 5 μL of propidium iodide (PI; 50 μg/mL) was added to each sample 3 min before flow cytometry acquisition.
# HepG2 cells [8] = assay: Intracellular ROS content, DCFDA, flow cytometry; format: cell-based, human; conditions: for change in ROS content vs control (in words): HepG2, 24 h, tested concentrations
# Method: as §8
# Caco-2 cells [9] = assay: Lipid peroxidation, DHPE-FITC probe, flow cytometry; format: cell-based, human
# Method: (§9) Lipid peroxidation was evaluated using the DHPE-FITC probe. Cells re-suspended in PBS (see Section 3.3.1) were incubated with 20 μM DHPE-FITC, for 20 min in the dark at room temperature (as describe).
# HepG2 cells [10] = assay: as above; format: cell-based, human
# Method: as §9
# Caco-2 cells [11] = assay: Glutathione (GSH) content, Mercury Orange, flow cytometry; format: cell-based, human; conditions: Caco-2, 24 h, tested concentrations
# Method: (§10) To assess GSH content, cells re-suspended in PBS (see Section 3.3.1) were incubated with 40 μM Mercury Orange (1-(4-chloromercuryphenyl-azo-2-naphtol) for 5 min (in the dark, room temperature), as described by du Plessis, et al..
# HepG2 cells [12] = assay: as above; format: cell-based, human; conditions: HepG2, 24 h, tested concentrations
# Method: as §10
# Caco-2 cells [13] = assay: Apoptosis/necrosis, Annexin-V-FITC/PI double staining, flow cytometry; format: cell-based, human; conditions: Caco-2, 24 h, tested concentrations; listed as GLY
# Method: (§11) The samples where then incubated for 20 min at room temperature. After this period, 5 μL of propidium iodide (PI; at 50 μg/mL) solution were added to each sample 3 min before acquisition.
# HepG2 cells [14] = assay: as above; format: cell-based, human; conditions: HepG2, 24 h, tested concentrations; listed as GLY
# Method: as §11
# HepG2 cells [15] = test system: HepG2 cells; design: method as in PMID 34635006; conditions: HepG2, 500 μM, 24 h; ref [31]; cited from earlier work
# [16] = test system: L-929 cells (fibroblast cell line); design: method as in PMID 33177931; conditions: 500 μM, ref [33]; cited from earlier work
# [17] = ref [47],[48],[49],[50]; cited from earlier work
# [18] = HepG2, FCCP positive control (5 μM)
# [19] = IC50 of pesticide-induced cytotoxicity
compound,measurement,setting,value
"N#CC(C#N)=NNc1ccc(OC(F)(F)F)cc1 [FCCP, carbonyl cyanide p-trifluoromethoxyphenylhydrazone, reference compound]",FL2/FL1 ratio reduction (% of control),"Caco-2 cells [1]; Caco-2, FCCP positive control (5 μM)",93.04±0.93 % of control
same,Caco-2 FL2/FL1 ratio,"Caco-2 cells [1]; Caco-2, FCCP positive control (5 μM), mean ± SD",0.06±0.02
same,FL2/FL1 ratio reduction (% of control),HepG2 cells [2]; [18],79.87±4.12 % of control
same,HepG2 FL2/FL1 ratio,HepG2 cells [2]; [18],0.04±0.01
"O=C(O)CNCP(=O)(O)O [Glyphosate, N-phosphonomethyl-glycine]",HepG2 cell viability (in words),HepG2 cells [3],no reduction in HepG2 cell viability
same,IC50,"Caco-2 cells [4]; Caco-2, 24 h exposure",> 1000 µM
same,IC50,"Caco-2 cells [4]; Caco-2, 48 h exposure",> 1000 µM
same,IC50 at 24 h,"[5]; Caco-2, 24 h, read-out: IC50 (cytotoxicity)",> 1000 µM
same,IC50 at 48 h,"[5]; Caco-2, 48 h, read-out: IC50 (cytotoxicity)",> 1000 µM
same,IC50 at 24 h,"[5]; HepG2, 24 h, read-out: IC50 (cytotoxicity)",> 1000 µM
same,IC50 at 48 h,"[5]; HepG2, 48 h, read-out: IC50 (cytotoxicity)",> 1000 µM
same,IC50,"HepG2 cells [6]; HepG2, 24 h exposure",> 1000 µM
same,IC50,"HepG2 cells [6]; HepG2, 48 h exposure",> 1000 µM
same,change in ROS content vs control (in words),Caco-2 cells [7]; listed as GLY,control-like ROS levels
same,change in ROS content vs control (in words),HepG2 cells [8]; listed as GLY,control-like ROS levels
same,lipid peroxidation (LP) vs control (in words),"Caco-2 cells [9]; Caco-2, 24 h, tested concentrations",did not produce significant LP
same,lipid peroxidation (LP) vs control (in words),"HepG2 cells [10]; HepG2, 24 h, tested concentrations",did not produce significant LP
same,change in GSH content vs control (in words),Caco-2 cells [11],did not show GSH levels different from control cells
same,change in GSH content vs control (in words),HepG2 cells [12],initial decrease in GSH content
same,change in mitochondrial membrane potential (in words),"Caco-2 cells [1]; Caco-2, 24 h, tested concentrations, listed as GLY",did not induce significant changes on MMP
same,apoptosis/necrosis induction (in words),Caco-2 cells [13],did not produce significant changes
same,apoptosis/necrosis induction (in words),HepG2 cells [14],did not induce significant changes on cell population distribution
"O=[N+]([O-])NC1=NCCN1Cc1ccc(Cl)nc1 [Imidacloprid, imidacloprid]",ROS content (in words),HepG2 cells [15],doubled ROS content
same,IC50 at 24 h,[5],624 ± 24 µM
same,IC50 at 48 h,[5],620 ± 11 µM
same,IC50 at 24 h,[5]; [19],> 1000 µM
same,IC50 at 48 h,[5]; [19],832 ± 30 µM
same,increase in ROS content compared with control,"Caco-2 cells [7]; Caco-2, 750 μM, 24 h",1.42 fold
same,change in ROS content vs control (in words),Caco-2 cells [7]; listed as IMD,significant (p < 0.05) increase in ROS content
same,increase in ROS content compared with control,"HepG2 cells [8]; HepG2, 500 μM, 24 h",1.59 fold
same,change in ROS content vs control (in words),HepG2 cells [8]; listed as IMD,significant (p < 0.05) increase in ROS content
same,lipid peroxidation (LP) vs control (in words),Caco-2 cells [9],induced significant LP
same,lipid peroxidation (LP) vs control (in words),HepG2 cells [10],not statistically significant
same,change in GSH content vs control (in words),Caco-2 cells [11],increased GSH levels
same,change in GSH content vs control (in words),HepG2 cells [12],increased GSH levels
same,LDH release increase,[16],50%
same,FL2/FL1 ratio reduction (% of control),"Caco-2 cells [1]; Caco-2, 500 μM, 24 h",21.36±0.05 % of control
same,FL2/FL1 ratio reduction (% of control),"Caco-2 cells [1]; Caco-2, 750 μM, 24 h",17.70±2.49 % of control
same,change in mitochondrial membrane potential (in words),HepG2 cells [2],Depolarized MMP
same,FL2/FL1 ratio reduction (% of control),"HepG2 cells [2]; HepG2, 100 μM, 24 h",23.79±1.79 % of control
same,HepG2 FL2/FL1 ratio,"HepG2 cells [2]; HepG2, 100 μM, 24 h",0.17±0.01
same,FL2/FL1 ratio reduction (% of control),"HepG2 cells [2]; HepG2, 250 μM, 24 h",27.49±1.48 % of control
same,HepG2 FL2/FL1 ratio,"HepG2 cells [2]; HepG2, 250 μM, 24 h",0.16±0.02
same,FL2/FL1 ratio reduction (% of control),"HepG2 cells [2]; HepG2, 500 μM, 24 h",19.93±1.29 % of control
same,HepG2 FL2/FL1 ratio,"HepG2 cells [2]; HepG2, 500 μM, 24 h",0.18±0.01
same,H-bond (donor count),[17],1
same,H-donor (acceptor count),[17],4
